# According to patent US10611730B2, “Benzimidazolone and benzothiazolone compounds and their use as AMPA receptor modulators” (Janssen Pharmaceutica NV, priority 2015, dated 2020):
# Target: TARP γ8 dependent AMPA receptor (GluA1o-g8 fusion channel) (Homo sapiens (Human), UniProt P42261+Q8WXS5)
# Assay: Calcium flux assay (FLIPR), HEK293 cells expressing GRIA1o-CACNG8 fusion
# Type: cell-based
# Conditions: inhibition of calcium flux after 15 μM glutamate, read-out: GluR1-γ8 pIC50 (converted)
# Procedure, shortened: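 Stable HEK293 clone expressing GluA1o-γ8 fusion (1:1 stoichiometry), loaded with Calcium-5/6 dye plus test compound; glutamate-evoked fluorescence normalized to control wells. Concentration-response fitted to four-parameter logistic, midpoint taken as inhibitory potency.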
# Sequence of TARP γ8 dependent AMPA receptor (GluA1o-g8 fusion channel) (P42261 other isoform, or with tags, fused parts or gaps): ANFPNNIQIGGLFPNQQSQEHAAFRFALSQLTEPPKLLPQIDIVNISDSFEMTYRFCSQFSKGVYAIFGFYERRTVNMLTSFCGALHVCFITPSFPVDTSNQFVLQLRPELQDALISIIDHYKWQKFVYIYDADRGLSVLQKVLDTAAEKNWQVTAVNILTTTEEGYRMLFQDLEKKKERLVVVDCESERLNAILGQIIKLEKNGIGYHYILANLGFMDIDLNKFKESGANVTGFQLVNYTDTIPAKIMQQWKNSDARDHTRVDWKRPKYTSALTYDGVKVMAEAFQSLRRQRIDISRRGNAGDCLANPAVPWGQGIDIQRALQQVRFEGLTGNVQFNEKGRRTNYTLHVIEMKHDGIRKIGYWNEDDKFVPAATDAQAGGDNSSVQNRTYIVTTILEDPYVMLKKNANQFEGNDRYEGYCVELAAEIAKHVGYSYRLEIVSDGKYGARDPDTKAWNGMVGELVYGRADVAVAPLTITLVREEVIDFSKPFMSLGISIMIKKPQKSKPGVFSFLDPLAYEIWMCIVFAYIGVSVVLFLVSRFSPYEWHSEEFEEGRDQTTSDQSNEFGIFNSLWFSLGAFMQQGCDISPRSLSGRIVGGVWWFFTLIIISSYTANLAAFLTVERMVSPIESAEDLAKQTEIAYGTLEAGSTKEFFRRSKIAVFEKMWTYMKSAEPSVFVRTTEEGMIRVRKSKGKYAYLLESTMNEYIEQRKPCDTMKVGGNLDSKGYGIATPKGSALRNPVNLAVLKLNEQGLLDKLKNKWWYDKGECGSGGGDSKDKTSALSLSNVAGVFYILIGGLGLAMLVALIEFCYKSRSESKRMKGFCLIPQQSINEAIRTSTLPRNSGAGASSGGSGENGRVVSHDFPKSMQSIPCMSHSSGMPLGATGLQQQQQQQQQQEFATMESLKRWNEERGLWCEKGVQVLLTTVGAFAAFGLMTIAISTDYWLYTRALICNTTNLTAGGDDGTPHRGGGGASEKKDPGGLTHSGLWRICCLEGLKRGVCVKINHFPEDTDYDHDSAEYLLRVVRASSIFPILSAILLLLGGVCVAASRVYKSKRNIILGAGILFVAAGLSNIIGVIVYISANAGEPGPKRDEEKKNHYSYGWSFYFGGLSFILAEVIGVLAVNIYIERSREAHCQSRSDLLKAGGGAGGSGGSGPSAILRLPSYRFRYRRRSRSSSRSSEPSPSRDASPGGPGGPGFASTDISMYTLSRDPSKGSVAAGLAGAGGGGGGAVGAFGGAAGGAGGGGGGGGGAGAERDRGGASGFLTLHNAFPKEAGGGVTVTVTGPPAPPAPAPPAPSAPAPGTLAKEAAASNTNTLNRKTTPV
row,IC50 [µM],SMILES
1,0.02,"N#CCc1cccc(-c2ccc(F)cc2)c1-c1ccc2[nH]c(=O)[nH]c2c1 [Example 135, 2-[3-(4-Fluorophenyl)-2-(2-oxo-1,3-dihydrobenzimidazol-5-yl)phenyl]acetonitrile]"
2,0.158,"N#CCc1cccc(-c2ccccc2F)c1-c1ccc2[nH]c(=O)[nH]c2c1 [Example 136, 2-[3-(2-Fluorophenyl)-2-(2-oxo-1,3-dihydrobenzimidazol-5-yl)phenyl]acetonitrile]"
3,0.316,"COc1ccc(-c2cccc(CC#N)c2-c2ccc3[nH]c(=O)[nH]c3c2)cc1 [Example 137, 2-[3-(4-Methoxyphenyl)-2-(2-oxo-1,3-dihydrobenzimidazol-5-yl)phenyl]acetonitrile]"
4,0.1,"N#CCc1cccc(C2CC2)c1-c1ccc2[nH]c(=O)[nH]c2c1 [Example 138, 2-[3-Cyclopropyl-2-(2-oxo-1,3-dihydrobenzimidazol-5-yl)phenyl]acetonitrile]"
5,0.251,"O=c1[nH]c2ccc(-c3c(Cl)ccc(CN4CCOCC4)c3Cl)cc2[nH]1 [Example 139, 5-[2,6-Dichloro-3-(morpholinomethyl)phenyl]-1,3-dihydrobenzimidazol-2-one]"
6,0.398,"O=c1[nH]c2ccc(-c3c(Cl)ccc(CN4CCCCC4)c3Cl)cc2[nH]1 [Example 140, 5-[2,6-Dichloro-3-(1-piperidylmethyl)phenyl]-1,3-dihydrobenzimidazol-2-one]"
7,1,"O=c1[nH]c2ccc(-c3cccc(CN4CCOCC4)c3Cl)cc2[nH]1 [Example 141, 5-[2-Chloro-3-(morpholinomethyl)phenyl]-1,3-dihydrobenzimidazol-2-one]"
8,0.631,"O=c1[nH]c2ccc(-c3cccc(CN4CCCCC4)c3Cl)cc2[nH]1 [Example 142, 5-[2-Chloro-3-(1-piperidylmethyl)phenyl]-1,3-dihydrobenzimidazol-2-one]"
9,0.1,"CC1(C)CN(Cc2cccc(-c3ccc4[nH]c(=O)[nH]c4c3)c2Cl)CCO1 [Example 143, 5-[2-Chloro-3-[(2,2-dimethylmorpholin-4-yl)methyl]phenyl]-1,3-dihydrobenzimidazol-2-one]"
10,1,"O=c1[nH]c2ccc(-c3c(Cl)cccc3CN3CCOCC3)cc2[nH]1 [Example 145, 5-[2-Chloro-6-(morpholinomethyl)phenyl]-1,3-dihydrobenzimidazol-2-one]"
11,7.94,"CN1CCN(Cc2cccc(Cl)c2-c2ccc3[nH]c(=O)[nH]c3c2)CC1 [Example 146, 5-[2-Chloro-6-[(4-methylpiperazin-1-yl)methyl]phenyl]-1,3-dihydrobenzimidazol-2-one]"
12,1.58,"Cc1c(CN2CCCCC2)cccc1-c1ccc2[nH]c(=O)[nH]c2c1 [Example 147, 5-[2-Methyl-3-(1-piperidylmethyl)phenyl]-1,3-dihydrobenzimidazol-2-one]"
13,2,"Cc1c(CN2CCOCC2)cccc1-c1ccc2[nH]c(=O)[nH]c2c1 [Example 148, 5-[2-Methyl-3-(morpholinomethyl)phenyl]-1,3-dihydrobenzimidazol-2-one]"
14,0.02,"Cc1c(CN2CCOC(C)(C)C2)cccc1-c1ccc2[nH]c(=O)[nH]c2c1 [Example 149, 5-[3-[(2,2-Dimethylmorpholin-4-yl)methyl]-2-methyl-phenyl]-1,3-dihydrobenzimidazol-2-one]"
15,0.2,"Cc1c(CN2CCSCC2)cccc1-c1ccc2[nH]c(=O)[nH]c2c1 [Example 154, 5-[2-Methyl-3-(thiomorpholinomethyl)phenyl]-1,3-dihydrobenzimidazol-2-one]"
16,0.316,"Cc1c(CN2CCN(C(=O)OC(C)(C)C)CC2)cccc1-c1ccc2[nH]c(=O)[nH]c2c1 [Example 155, tert-Butyl 4-[[2-methyl-3-(2-oxo-1,3-dihydrobenzimidazol-5-yl)phenyl]methyl]piperazine-1-carboxylate]"
17,6.31,"Cc1c(CN2CCCC2)cccc1-c1ccc2[nH]c(=O)[nH]c2c1 [Example 156, 5-[2-Methyl-3-(pyrrolidin-1-ylmethyl)phenyl]-1,3-dihydrobenzimidazol-2-one]"
